The results in this text go back to publication PMC6731595, “The anti-parasitic agent suramin and several of its analogues are inhibitors of the DNA binding protein Mcm10” (Open Biology, 2019).

Assay [1] has as its target T1, human RPA70AB (A and B DNA binding domains of RPA70) (Homo sapiens, UniProt P27694).
T1 construct: recombinant human RPA70AB (181-422) in a pSV281 vector; 6xHis (TEV site) (N, cleaved yes); made in house; host or cells: Escherichia coli BL21(DE3)
Put plainly: Fluorescence polarization competition assay, displacement of 5′-6FAM ssDNA probe from RPA70AB. Particulars: for Ki: predominant low-affinity (or only) component, mean ± s.e.m., n ≥ 3, read-out: fluorescence polarization hRPA70AB Ki2; for selectivity RPA/ hMcm10: ratio of hRPA70AB Ki2 to hMcm10-ID Ki (FP); for selectivity for hMcm10 over RPA70AB: FP. As for the experimental part:
(§1) A fluorescence polarization (FP) HTS assay was established to detect inhibitors of the binding of the 5′-6FAM 10-mer oligo probe to Mcm10. Test compounds dissolved in DMSO were added to 384-well plates (Corning 4514) using an Echo 550 acoustic dispenser (final DMSO 0.1%) to achieve a final single point screening concentration of 10 µM. Then 10 µl of 2× Xenopus internal domain Mcm10 (xMcm10-ID, final concentration 2 µM) in binding buffer (20 mM Tris HCl, 100 mM NaCl, 5% glycerol, and 0.01% triton, pH 7.5) was added using the Combi nL Multidrop dispenser. Finally, 10 µl of 2× 5′-6FAM DNA (final 12.5 nM) in binding buffer was added using the Multidrop. DMSO (0.1%, high signal) and probe only (low signal) controls were included on every plate. Plates were mixed for 2 min, incubated for 60 min at RT in the dark, and read on a CLARIOstar multimode plate reader (excitation: 482-16, emission: 530-40, dichroic filter: LP504).
(§2) The LOPAC pilot screen identified the sulfhydryl reagent 4-chloromercuribenzoic acid as an inhibitor in the fluorescence polarization (FP) assay. As there was no known Mcm10 inhibitor, 4-chloromercuribenzoic acid (30 μM) was used as a positive control on initial screening plates. Following the discovery of suramin as a Mcm10 inhibitor, suramin (7 μM) was used as a positive control on subsequent screening plates. To confirm activity, screening hits were tested in dose response experiments (8 concentrations in duplicate) using xMcm10-ID. Similar dose response experiments were conducted with suramin and its analogs to confirm activity for hMcm10-ID (1 μM) and xMcm10-FL (2 μM) and to determine selectivity relative to RPA70AB (0.4 μM). Saturation experiments for each protein were conducted using increasing concentrations of protein with a fixed probe concentration (12.5 nM). FP was measured in mP units, and ∆mP values for each well were calculated as the difference between the measured mP and the average of the “probe only” controls. […] The parallel and perpendicular mP values were also used to calculate total fluorescence intensity (TFI) determined by the sum of parallel mP + (2 x perpendicular mP). TFI was used to detect fluorescence interference by compounds [1]. […] IC50 values were calculated using the four parameter logistic equation in Prism 6.0 (GraphPad). Ki values were obtained using an online Ki calculator according to the equations of Nikolovska-Coleska (http://sw16.im.med.umich.edu/soft-ware/calc_ki/). KD values were calculated using the one site or two site binding equations in Prism 6.0 (GraphPad).

Assay [2] concerns the target T2, human Mcm10 internal domain (hMcm10-ID) (Homo sapiens, UniProt Q7L590).
T2 construct: hMcm10-ID (residues 237 to 436) were expressed in E. coli strain BL21(DE3); 6xHis (HRV 3C site) (N, cleaved yes); made in house; host or cells: E. coli BL21(DE3)
T2 sequence (Q7L590 237-436): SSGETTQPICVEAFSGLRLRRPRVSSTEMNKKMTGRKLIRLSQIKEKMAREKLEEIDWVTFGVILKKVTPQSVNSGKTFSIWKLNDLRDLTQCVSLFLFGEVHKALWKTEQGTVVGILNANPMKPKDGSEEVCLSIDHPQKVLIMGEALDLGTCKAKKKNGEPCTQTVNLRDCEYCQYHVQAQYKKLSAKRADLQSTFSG
Briefly: Fluorescence polarization competition assay, displacement of 5′-6FAM 10-mer ssDNA probe from hMcm10-ID. The class given is binding. As to conditions: mean ± s.e.m., n ≥ 3; hMcm10-ID 1 μM, probe 12.5 nM. On the procedure:
as §1, §2
A general note: Polarisation of emitted light reports the rotation of a fluorescent probe.

For assay [3], the target named is T3, full-length Xenopus Mcm10 (xMcm10-FL) (Xenopus laevis, UniProt Q5EAW4).
T3 construct: The full-length xMcm10 was expressed with MBP fused onto the N-terminus and 6x-His tag attached to the C-terminus; 6xHis (C); made in house; host or cells: E. coli BL21(DE3), as for the ID constructs ('as described above')
T3 sequence (Q5EAW4 1-860): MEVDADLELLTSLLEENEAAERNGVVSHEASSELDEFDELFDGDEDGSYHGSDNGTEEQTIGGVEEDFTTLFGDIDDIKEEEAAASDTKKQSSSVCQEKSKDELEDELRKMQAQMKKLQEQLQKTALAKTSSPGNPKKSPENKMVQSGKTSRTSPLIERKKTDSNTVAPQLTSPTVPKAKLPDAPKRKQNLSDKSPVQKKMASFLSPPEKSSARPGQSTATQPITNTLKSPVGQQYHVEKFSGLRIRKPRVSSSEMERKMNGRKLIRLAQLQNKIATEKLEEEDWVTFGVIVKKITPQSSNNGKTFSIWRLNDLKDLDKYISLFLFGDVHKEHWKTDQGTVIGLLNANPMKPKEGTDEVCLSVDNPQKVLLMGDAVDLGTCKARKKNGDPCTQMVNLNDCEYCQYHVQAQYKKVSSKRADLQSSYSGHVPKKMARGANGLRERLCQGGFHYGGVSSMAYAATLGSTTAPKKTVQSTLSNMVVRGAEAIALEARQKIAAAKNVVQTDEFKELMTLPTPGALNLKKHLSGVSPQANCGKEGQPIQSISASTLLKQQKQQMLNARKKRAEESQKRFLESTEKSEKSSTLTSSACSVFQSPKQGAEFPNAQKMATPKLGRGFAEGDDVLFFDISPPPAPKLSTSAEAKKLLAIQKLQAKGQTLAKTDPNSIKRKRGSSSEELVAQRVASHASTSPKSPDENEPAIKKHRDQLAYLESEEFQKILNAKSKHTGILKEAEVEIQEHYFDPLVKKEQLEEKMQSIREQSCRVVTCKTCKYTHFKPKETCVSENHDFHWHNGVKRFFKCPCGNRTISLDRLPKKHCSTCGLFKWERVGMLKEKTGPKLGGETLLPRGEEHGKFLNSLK
Put plainly: Fluorescence polarization competition assay, displacement of 5′-6FAM ssDNA probe from xMcm10-FL. It is filed as binding. As to conditions: for Ki: averages of n = 2, xMcm10-FL 2 μM; for activity at xMcm10-FL (result in words): FP displacement curves, figure S3. As for the experimental part:
as §1, §2

The target of assay [4] is T4, Xenopus internal domain Mcm10 (xMcm10-ID) (Xenopus laevis, UniProt Q5EAW4).
T4 construct: xMcm10-ID (amino acid residues 229 to 427); 6xHis (HRV 3C site) (N, cleaved yes); made in house; host or cells: E. coli BL21(DE3)
T4 sequence (Q5EAW4 229-427): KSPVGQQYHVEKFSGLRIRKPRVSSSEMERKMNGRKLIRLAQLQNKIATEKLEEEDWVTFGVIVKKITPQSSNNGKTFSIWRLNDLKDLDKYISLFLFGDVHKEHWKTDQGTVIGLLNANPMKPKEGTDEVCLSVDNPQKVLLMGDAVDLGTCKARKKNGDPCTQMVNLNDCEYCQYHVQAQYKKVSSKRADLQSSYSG
Briefly: Fluorescence polarization HTS and dose-response assay, 5′-6FAM probe binding to xMcm10-ID. As to conditions: dose-response with repurchased or purchased compound. On the procedure: as §1, §2

Entries after “also recorded” stand apart in the source; their conditions may differ. Where a name gives a salt, the structure may show the parent alone.

T1 sequence (P27694 181-422): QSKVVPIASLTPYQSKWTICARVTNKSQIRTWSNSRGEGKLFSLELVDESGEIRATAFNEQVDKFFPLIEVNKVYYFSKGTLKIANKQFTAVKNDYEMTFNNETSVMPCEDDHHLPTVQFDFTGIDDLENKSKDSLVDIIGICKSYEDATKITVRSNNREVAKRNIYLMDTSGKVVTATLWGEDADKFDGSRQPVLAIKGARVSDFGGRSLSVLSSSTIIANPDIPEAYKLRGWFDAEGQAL

As to `O=C(Nc1cccc(C(=O)Nc2ccc(S(=O)(=O)O)c3cc(S(=O)(=O)O)cc(S(=O)(=O)O)c23)c1)Nc1cccc(C(=O)Nc2ccc(S(=O)(=O)O)c3cc(S(=O)(=O)O)cc(S(=O)(=O)O)c23)c1` [NF023], the Ki in assay [1] was determined as 11 ± 1 µM; in assay [2] it was 1.8 ± 0.2 µM; in assay [3], 4.4 µM. Also, the “selectivity RPA/ hMcm10” value in assay [1] was 6.

`Cc1nc(/N=N/c2cc(S(=O)(=O)O)ccc2S(=O)(=O)O)c(COP(=O)(O)O)c(C=O)c1O` [iso-PPADS, pyridoxalphosphate-6-azophenyl-2’, 5’-disulfonic acid tetrasodium salt]: in assay [1], the “selectivity for hMcm10 over RPA70AB” value is reported as “greater than 50 fold”, the Ki is > 1000 µM and the “selectivity RPA/ hMcm10” value is listed as >56. This molecule also returned a Ki in assay [2] of 18 ± 2 µM. Moreover, in assay [4], the “inhibition of 5′-6FAM probe binding to xMcm10-ID (result in words)” value (shortened to “inhibition of 5′-6FAM probe binding”) was “weakly and incompletely inhibit; also recorded: little activity”. For the same molecule, in assay [3], the “activity at xMcm10-FL (result in words)” value was “inactivity” and the Ki is > 1000 µM.

On to `O=C(Nc1cccc(C(=O)Nc2cc(C(=O)Nc3ccc(S(=O)(=O)O)c4cc(S(=O)(=O)O)cc(S(=O)(=O)O)c34)ccc2F)c1)Nc1cccc(C(=O)Nc2cc(C(=O)Nc3ccc(S(=O)(=O)O)c4cc(S(=O)(=O)O)cc(S(=O)(=O)O)c34)ccc2F)c1` [NF157], for which, in assay [1], the “selectivity for hMcm10 over RPA70AB” value is given as “more than 10 fold”, the Ki turned out to be 1.9 ± 0.1 µM and the “selectivity RPA/ hMcm10” value worked out at 11. In addition, in assay [2], the Ki was found to be 0.17 ± 0.02 µM. Moreover, the “higher affinity for hMcm10-ID over xMcm10-FL” value in assay [3] (FP Ki comparison) is reported as “up to 20 fold”. In addition, the Ki in assay [3] was 3.4 µM.

Take `Cc1nc(/N=N/c2ccc(S(=O)(=O)O)cc2S(=O)(=O)O)c(COP(=O)(O)O)c(C=O)c1O` [PPADS, pyridoxalphosphate-6-azophenyl-2’, 4’-disulfonic acid tetrasodium salt]: in assay [1], the “selectivity for hMcm10 over RPA70AB” value is given as “greater than 50 fold”, the Ki was > 1000 µM and the “selectivity RPA/ hMcm10” value is >59. Further, the Ki in assay [2] was 17 ± 1 µM. Further, the “inhibition of 5′-6FAM probe binding” value in assay [4] was “weakly and incompletely inhibit; also recorded: little activity”. For the same molecule, in assay [3], the “activity at xMcm10-FL (result in words)” value is recorded as “inactivity” and the Ki is > 1000 µM.

As to `Cc1ccc(C(=O)Nc2ccc(S(=O)(=O)O)c3cc(S(=O)(=O)O)cc(S(=O)(=O)O)c23)cc1NC(=O)c1cccc(NC(=O)Nc2cccc(C(=O)Nc3cc(C(=O)Nc4ccc(S(=O)(=O)O)c5cc(S(=O)(=O)O)cc(S(=O)(=O)O)c45)ccc3C)c2)c1` [suramin, suramin sodium salt], the Ki was found to be 2.5 ± 0.1 µM in assay [1], 0.83 ± 0.07 µM in assay [2] and 3.4 µM in assay [3]. In assay [1], the “selectivity RPA/ hMcm10” value is recorded as 3. Besides, in assay [4], the “inhibition of 5′-6FAM probe binding” value is “active”.
